This is an account of results in PubChem BioAssay AID1996.

In brackets after ≈: the same amount, converted by molar mass. Where only a bound is given, the exact number is not on record here.

In general, kinetic solubility refers to solubility judged after dilution from a stock solution rather than from solid.

For this data set the following is noted: buffer; pH 7.4; 200.0 µM.
`Cc1ccc(S(=O)(=O)CC(=O)c2ccccc2[N+](=O)[O-])cc1`: the solubility (kinetic) came to 42.8 µg/mL (≈ 134 µM). Under `O=C(CNS(=O)(=O)c1cccs1)NCc1ccc(F)cc1` stands greater than 49.3 µg/mL. `COc1ccc(/C=C/C(=O)N[C@H](C(=O)O)C(C)C)cc1` displayed a kinetic solubility greater than 41.6 µg/mL.

Consider `Nc1cc(=O)[nH]c(SCc2ccc(Cl)cc2Cl)n1`, for which the solubility (kinetic) was found to be 1 µg/mL (≈ 3.31 µM).

Turning to `Cc1cc(C(=O)OCC(N)=O)c(C)n1-c1ccccc1`, the kinetic solubility turned out to be 40.1 µg/mL (≈ 147 µM). To `COc1cc(CC(=O)NCCCc2ccccc2)cc(OC)c1OC` belongs greater than 51.5 µg/mL; to `Cc1ccc(-c2cc(C(=O)N3CCN(c4ccc(O)cc4)CC3)c3ccccc3n2)cc1`, 6.4 µg/mL (≈ 15.1 µM). To `COc1ccc(C)cc1N(CC(=O)N1CCCCCC1)S(C)(=O)=O` belongs 38.1 µg/mL (≈ 107 µM). `Nc1nccc(-c2ccc(-n3cccc3)cc2)n1` showed a kinetic solubility of less than 0.1 µg/mL. To `COc1ccccc1-c1nc2cc(Cl)ccc2c(=O)n1O` belongs greater than 45.4 µg/mL; to `CC1CCC2(CC1)NC(=O)N(CC(=O)N1CCOCC1)C2=O` (centres undefined), greater than 46.4 µg/mL; to `Cl.O=C(CN1CCCCC1)NC1CCc2cc3c(cc21)CCC3` (centres undefined), 45.6 µg/mL.

With `Cc1ccc(Nc2nc(N)c3ccccc3n2)cc1C.Cl`, the solubility (kinetic) amounted to 5.9 µg/mL. `C[C@H]1O[C@@H](n2cc(F)c(=O)[nH]c2=O)[C@H](O)[C@@H]1O` gave a kinetic solubility greater than 36.9 µg/mL. Under `CCCNC(=O)CN(C)CC(=O)Nc1ccccc1C#N` stands greater than 43.3 µg/mL; under `CCc1ccc2[nH]c(C(=O)Nc3ccc(F)cc3Br)cc2c1`, 0.9 µg/mL (≈ 2.49 µM); under `COc1ccc(C2=C(c3ccc([N+](=O)[O-])cc3)C(=O)OC2)cc1`, 3.4 µg/mL (≈ 10.9 µM).

Consider `O=C1CN(C(=O)COC(=O)c2ccc(C(F)(F)F)cc2)c2ccccc2N1`, for which the solubility (kinetic) was found to be 2.4 µg/mL (≈ 6.34 µM). To `Cc1ccccc1C(=O)N1CCC(C(=O)Nc2nccs2)CC1` belongs 46.7 µg/mL (≈ 142 µM). Under `Cc1ccc(CNC(=O)COC(=O)CN2C(=O)C3CC=CCC3C2=O)cc1` (centres undefined) stands greater than 55.6 µg/mL; under `CCCCS(=O)(=O)N1CCCC(C(=O)N2CCOCC2)C1` (centres undefined), 42.4 µg/mL (≈ 133 µM); under `O=C(/C=C/c1ccco1)N1CCN(c2ccc(F)cc2)CC1`, 5.6 µg/mL (≈ 18.6 µM).

The compound `Cl.NC(CO)C12CC3CC(CC(C3)C1)C2` (centres undefined) gave a solubility (kinetic) greater than 34.8 µg/mL. The compound `CCC(C)(C)c1ccc(Oc2ccc(N)cc2)cc1` displayed a kinetic solubility of 4.2 µg/mL (≈ 16.4 µM). Under `O=C(CCNC(=O)c1ccco1)Nc1ccccc1OC(F)F` stands greater than 48.6 µg/mL; under `COc1ccc(C(=O)NCC(=O)OCC(=O)NC23CC4CC(CC(C4)C2)C3)cc1`, greater than 60.1 µg/mL; under `O=C(NCCc1ccccc1)C1(c2ccccc2)CCCC1`, 28.9 µg/mL (≈ 98.5 µM). Under `Fc1ccc2nc(C(F)(F)F)cc(N3CCOCC3)c2c1` stands 11.3 µg/mL (≈ 37.6 µM); under `COc1cccc(Oc2ccc(S(=O)(=O)N3CCOCC3)cc2[N+](=O)[O-])c1`, 11 µg/mL (≈ 27.9 µM).

Turning to `COC(=O)c1ccc(C2NC(=O)c3c(sc(C)c3C)N2)cc1` (centres undefined), the solubility (kinetic) was determined as 14.5 µg/mL (≈ 45.8 µM). To `CCc1cccc(C)c1NC(=O)c1cccnc1` belongs 34.4 µg/mL (≈ 143 µM). Under `Cc1ccc(OCC(=O)NCCCNC(=O)c2cccnc2)cc1C` stands greater than 51.2 µg/mL. To `Fc1ccc(CNC(=S)NCc2ccc(F)cc2)cc1` belongs 6.4 µg/mL (≈ 21.9 µM); to `Cc1cccc(C)c1NC(=O)CCn1cnc2ccccc2c1=O`, greater than 48.2 µg/mL; to `Cc1ccc(N=Cc2c(O)c3ccccc3oc2=O)cc1F`, less than 0.6 µg/mL.

The compound `O=C(NCCO)C1COc2ccccc2O1` (centres undefined) displayed a solubility (kinetic) greater than 33.5 µg/mL.

In turn, `Cc1cc(C)nc(Nc2cccc(C(F)(F)F)c2)n1.Cl` had a solubility (kinetic) of 1.8 µg/mL.

The compound `NC(=O)c1cc([N+](=O)[O-])cc2c1C=Cc1ccccc1O2` gave a solubility (kinetic) of 4.6 µg/mL (≈ 16.3 µM).

For `O=S(=O)(NC1CCCCCCC1)c1ccc(F)cc1`, the kinetic solubility is greater than 42.8 µg/mL. Under `O=S(=O)(c1c(F)cccc1F)N1CCCC2CCCCC21` (centres undefined) stands 13.3 µg/mL (≈ 42.2 µM). To `CC(C)(C)c1ccc(C(=O)NCCc2ccccc2)cc1` belongs 0.8 µg/mL (≈ 2.84 µM); to `O=C(Nc1cccc(S(=O)(=O)N2CCCC2)c1)c1ccncc1`, 46.9 µg/mL (≈ 142 µM); to `Cc1ccc(NC(=O)N2CCCC2C(=O)NCC2CCCO2)cc1` (centres undefined), greater than 49.7 µg/mL.

`COC(=O)Cn1cc(C=C2C(=O)N(C)C(=O)N(C)C2=O)c2ccccc21` registered a kinetic solubility of 3.8 µg/mL (≈ 10.7 µM).

`O=C1CN(c2ccccc2)C(=S)N1c1ccccc1.[Na+]` yielded a kinetic solubility of 7.4 µg/mL. To `NC1=NC(=O)/C(=C/C=C/c2cccs2)S1` belongs 5.9 µg/mL (≈ 25 µM). To `CN(C(=O)CSc1nnc(N)s1)C1CCCCC1` belongs greater than 43 µg/mL.

`O=C(O)Cn1c(O)c(C2=c3ccccc3=NC2=O)sc1=O` had a solubility (kinetic) of 39.4 µg/mL (≈ 129 µM).

In turn, `CCOC(=O)N1CCN(C(=O)COC(=O)c2cc(C)ccc2C)CC1` came in with a solubility (kinetic) greater than 52.3 µg/mL. Under `Cc1csc(Nc2ccccc2)[n+]1C.[Br-]` stands 30.2 µg/mL; under `O=C1CN(C(=O)COC(=O)CCS(=O)(=O)c2ccccc2Cl)c2ccccc2N1`, greater than 65.5 µg/mL. To `O=C(c1ncc[nH]1)c1cccs1` belongs greater than 26.7 µg/mL; to `CN(Cc1nc(-c2cccs2)no1)CC1(N2CCOCC2)CCCCC1`, 38.7 µg/mL (≈ 103 µM). Under `O=c1cccc2n1CC1CNCC2C1` (centres undefined) stands greater than 28.5 µg/mL. As for `Cc1noc(C(=O)N(C)c2ccccc2)c1Cl`, the kinetic solubility was 33.8 µg/mL (≈ 135 µM). Under `CC(NC(=O)COC(=O)Cc1ccc(Cl)cc1)c1ccccc1` (centres undefined) stands greater than 49.8 µg/mL; under `CC1CCCCC1NC(=O)COc1ccccc1C#N` (centres undefined), greater than 40.9 µg/mL.

`COc1ccc(OC)c(NC(=O)CCOc2cccc(C)c2)c1`: the kinetic solubility was 23 µg/mL (≈ 72.9 µM).

`O=C(Nc1nccs1)c1cccc(NC(=O)C(F)(F)F)c1` gave a solubility (kinetic) of 38.8 µg/mL (≈ 123 µM). Under `O=C(COc1ncnc2ccccc12)N1CCN(c2ccccc2)CC1` stands greater than 52.3 µg/mL. Compound `O=C1CC(N2CCOCC2)C(=O)N1c1ccc(Cl)cc1` (centres undefined) showed a solubility (kinetic) greater than 44.2 µg/mL. Under `COc1ccc(C)cc1NC(=O)NC1CCCCCCC1` stands less than 0.3 µg/mL; under `CCc1ccc(OCCOCCN2CCN(C)CC2)cc1.O=C(O)C(=O)O`, 54 µg/mL. `c1ccc(C2CN3CCC2CC3)cc1` (centres undefined) showed a kinetic solubility greater than 28.1 µg/mL. To `CC(=O)C(Sc1nccc(-c2cccs2)n1)C(C)=O` belongs 40.5 µg/mL (≈ 139 µM). As for `Cc1ccc(/C=C/C(=O)Oc2ccc(C#N)cc2)o1`, the kinetic solubility is less than 0.5 µg/mL. Under `O=C(Nc1ccc(Br)cc1)c1cc(-c2ccncc2)nc2ccccc12` stands 5.8 µg/mL (≈ 14.3 µM); under `Cc1cc(OCC(=O)N(C)C2CCCCC2)ccc1Cl`, 35.5 µg/mL (≈ 120 µM). To `CC(=O)Nc1ccc(S(=O)(=O)N2CCCCC2C(=O)O)cc1` (centres undefined) belongs 44.4 µg/mL (≈ 136 µM); to `O=C(CN1CCCCCCC1)Nc1cccc(Cl)c1Cl`, less than 0.3 µg/mL; to `COc1cc(CNc2ccc(N3CCCC3)cc2)cc(Cl)c1OC`, 9.7 µg/mL (≈ 28 µM). To `Cc1ccc(Sc2c([N+](=O)[O-])c(=O)n(C)c3ccccc23)cc1` belongs less than 0.3 µg/mL. In turn, `Cc1ccc(C(=O)NCCC(=O)NCc2ccco2)cc1` returned a kinetic solubility greater than 42.9 µg/mL. Regarding `N#C/C(=C/c1ccc(-c2ccccc2[N+](=O)[O-])o1)C(N)=O`, the kinetic solubility was 1.7 µg/mL (≈ 6 µM).

For `Cc1ccc(C(=O)NCCCNC(=O)c2ccco2)cn1`, the solubility (kinetic) came out at 34.3 µg/mL (≈ 119 µM). Compound `CCC(C)C(NC(=O)c1ccccc1NC(=O)c1ccccc1)C(=O)O` (centres undefined) gave a kinetic solubility of 50.7 µg/mL (≈ 143 µM). Under `COC(=O)Cn1c2ccc(OC)cc2c2nc(C)sc21` stands greater than 43.6 µg/mL; under `COc1cc(NC(=O)CSCc2ccccc2)c(C(=O)O)cc1OC`, 52.6 µg/mL (≈ 146 µM). To `Cc1cc(=O)oc2cc(NC(=O)c3cccc(F)c3)ccc12` belongs less than 0.6 µg/mL; to `CC(=O)N1Cc2ccccc2CC1C(=O)NCc1ccccc1F` (centres undefined), greater than 49 µg/mL; to `NC(=S)NC1CC2CC1C1C=CCC21` (centres undefined), greater than 31.2 µg/mL. To `O=C(Cc1c(F)cccc1Cl)Nc1nc2ccccc2s1` belongs 0.8 µg/mL (≈ 2.49 µM); to `CN(CC(=O)Nc1ccc(F)c(F)c1F)C(=O)C1COc2ccccc2O1` (centres undefined), greater than 57 µg/mL.

`O=C(c1cccc([N+](=O)[O-])c1)N1CCN(c2ncccn2)CC1` showed a kinetic solubility greater than 47 µg/mL. To `C[C@H](NC(=O)N1CCC(Cc2ccccc2)CC1)C(=O)O` belongs greater than 43.6 µg/mL; to `COc1ccc(CC(=O)NCC2CCCCC2)cc1OC`, greater than 43.7 µg/mL; to `COc1ccc(NC(=O)NC2CCCc3ccccc32)cc1OC` (centres undefined), 1.1 µg/mL (≈ 3.37 µM). Under `CCc1ccc(N2C(=O)CN(Cc3sccc3C)C2=S)cc1` stands less than 0.4 µg/mL; under `CCCc1nc2oc3c(NCC(C)O)ncnc3c2c2c1CCCC2` (centres undefined), 0.4 µg/mL (≈ 1.17 µM). To `CCCC(=O)Nc1ccc(C(=O)COC(=O)C2CC2C)cc1` (centres undefined) belongs 14 µg/mL (≈ 46.2 µM); to `CCNc1ccc([N+](=O)[O-])cc1`, 19.9 µg/mL (≈ 120 µM). On to `COc1ccccc1NS(=O)(=O)c1ccc2oc(=S)[nH]c2c1`, for which the kinetic solubility was greater than 50.5 µg/mL. To `Fc1ccc(C2c3cccn3CCN2C(=S)Nc2cccc(F)c2)cc1` (centres undefined) belongs 5.1 µg/mL (≈ 13.8 µM); to `Br.CCCCCCCCCCn1ccc(=N)cc1`, greater than 47.3 µg/mL; to `C=C(C)COc1ccc(-c2nc(N)ncc2-c2ccc(Cl)cc2)c(O)c1`, 1.9 µg/mL (≈ 5.17 µM).

Consider `Cc1ccc(C(=O)COC(=O)c2nc(Cl)ccc2Cl)cc1`, for which the solubility (kinetic) is 48.4 µg/mL (≈ 149 µM). Under `COc1cc(S(=O)(=O)N2CCN(C(=O)C3CC3)CC2)ccc1NC(C)=O` stands greater than 57.2 µg/mL; under `COC(=O)c1sccc1NC(=O)c1c(Cl)cccc1Cl`, 0.7 µg/mL (≈ 2.12 µM). Take `Nc1c(C(=O)N2CCCCCC2)oc2ccccc12`: the solubility (kinetic) is greater than 38.7 µg/mL. To `COc1cc(C(=O)O)c([N+](=O)[O-])c(OC)c1OC` belongs greater than 38.6 µg/mL; to `Cc1cc(C)c(NC(=O)CCc2c(C)noc2C)c(C)c1`, greater than 43 µg/mL; to `O=C1CC(N2CCN(S(=O)(=O)c3ccccc3F)CC2)C(=O)N1c1ccc(F)cc1F` (centres undefined), greater than 68 µg/mL. Under `CCCC1NC(=S)NC(C)=C1C(C)=O` (centres undefined) stands greater than 31.8 µg/mL. Under `Cc1ccc(CN2CCCC(C(=O)c3ccc4c(c3)OCO4)C2)cc1C` (centres undefined) stands 25.4 µg/mL (≈ 72.3 µM).
